The values below come from US20190060249A1 (priority 2017, published 2019).

For this assay, the target named is T1, ALDH3A1 (Homo sapiens, UniProt P30838).
T1 sequence (P30838 1-453): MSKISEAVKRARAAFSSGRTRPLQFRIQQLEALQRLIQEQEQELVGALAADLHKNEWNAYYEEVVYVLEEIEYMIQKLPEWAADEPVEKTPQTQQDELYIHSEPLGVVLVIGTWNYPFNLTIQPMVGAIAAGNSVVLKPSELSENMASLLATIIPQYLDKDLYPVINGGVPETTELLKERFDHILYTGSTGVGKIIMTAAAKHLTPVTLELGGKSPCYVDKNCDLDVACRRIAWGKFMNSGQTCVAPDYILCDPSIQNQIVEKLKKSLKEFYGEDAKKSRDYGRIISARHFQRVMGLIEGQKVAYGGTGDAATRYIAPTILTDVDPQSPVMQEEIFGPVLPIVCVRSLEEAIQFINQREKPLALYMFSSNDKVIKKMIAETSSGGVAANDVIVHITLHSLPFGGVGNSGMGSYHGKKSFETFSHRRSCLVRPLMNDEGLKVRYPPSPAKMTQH
The experiment in a line: ALDH enzymatic assay (spectrophotometric), recombinant ALDH3A1. It is filed as biochemical. The conditions noted are these: 10 mM acetaldehyde, propionaldehyde, benzaldehyde, cinnamaldehyde, decanal, heptaldehyde or 200 μM 4-hydroxynonenal; 100 μM compound. From the text:
To determine if ALDH3A1 activation is sufficient to protect salivary glands from radiation-induced dysfunction, a library of 135 traditional Chinese medicine extracts donated from Sun Ten Pharmaceutical Co., Taiwan, was screened using a spectroscopic enzyme activity assay and purified recombinant ALDH3A1. […] We then conducted high performance liquid chromatography (HPLC) fractionation of the extracts and nuclear magnetic resonance (NMR) characterization of the fractions. Based on the NMR fingerprint, we identified known constituents of similar fingerprints and purchased the commercially available compounds to test using the enzyme activity assay.
ALDH enzymatic assay: ALDH1A1, ALDH1A2, 2, 3A1, 3A2, 4A1, 5A1, 7A1 were measured as previously described using 5 μg/ml of recombinant protein (Chen, C. H., Cruz, L. A., and Mochly-Rosen, D. (2015) Pharmacological recruitment of aldehyde dehydrogenase 3A1 (ALDH3A1) to assist ALDH2 in acetaldehyde and ethanol metabolism in vivo. Proceedings of the National Academy of Sciences of the United States of America 112, 3074-3079). […] Assays were conducted in 50 mM NaPPi buffer (pH 7.4) in the presence of 2.5 mM NAD^+ and 10 mM substrate and measured in triplicate at 25° C. Dose response curve fits and EC50's were calculated using GraphPad Prism 7 software.
Activity measured in presence of compound concentrations from 6 nM to 400 μM.

In the case of `C=CCc1ccc2c(c1)OCO2` [Alda-89, safrole, reference compound], the “substrate specificity of increase in ALDH3A1 catalytic activity” value was “only increase the catalytic activity of ALDH3A1 towards small aldehydes like acetaldehyde and propionaldehyde but not aromatic or long-chain aldehydes”.
